Key:
[1] = type: physicochemical; conditions: pH 7
legionella bacteria = type: cell-based; conditions: initial 10^7 CFU/100 mL, after 24 hours, 36° C., pH 7.0

Row | Structure (SMILES) | Residual concentration Cl2 (monochlorosulfamic acid as Cl2) [1] | Residual concentration Cl-MIT [1] | Sterilizing rate (legionella bacteria)
1 | Cn1sc(Cl)cc1=O [Sample 11, 5-chloro-2-methyl-4-isothiazoline-3-one] | 0 mg/L | 2.1 µg/L | 100%
2 | Cn1sc(Cl)cc1=O [Sample 17, 5-chloro-2-methyl-4-isothiazoline-3-one] | 0 mg/L | 600.0 µg/L | 
3 | Cn1sc(Cl)cc1=O [Sample 19, 5-chloro-2-methyl-4-isothiazoline-3-one] | 0 mg/L | 1500.0 µg/L | 

Reference: patent US10765115B2 (priority 2015, dated 2020)
